Results as given in ChEMBL document CHEMBL4602623, “Inhibition of hedgehog signaling by stereochemically defined des-triazole itraconazole analogues” (Bioorg Med Chem Lett, 2020).

Test: Inhibition of Hedgehog signaling pathway in mouse ASZ001 cells assessed as decrease in Gli1 mRNA expression after 48 hrs by qRT-PCR analysis
Format: cell-based
Details: ASZ001, 48 h

Row | SMILES | IC50 [nM]
1 | CC[C@@H](C)n1ncn(-c2ccc(N3CCN(c4ccc(OC[C@@H]5CO[C@H](c6ccc(Cl)cc6Cl)O5)cc4)CC3)cc2)c1=O | 300
2 | CC[C@@H](C)n1ncn(-c2ccc(N3CCN(c4ccc(OC[C@@H]5CO[C@@](C(N)=O)(c6ccc(Cl)cc6Cl)O5)cc4)CC3)cc2)c1=O | 940
3 | CC[C@@H](C)n1ncn(-c2ccc(N3CCN(c4ccc(OC[C@@H]5CO[C@@](CCl)(c6ccc(Cl)cc6Cl)O5)cc4)CC3)cc2)c1=O | 25
4 | CC[C@@H](C)n1ncn(-c2ccc(N3CCN(c4ccc(OC[C@@H]5CO[C@](c6ccc(Cl)cc6Cl)(C(F)(F)F)O5)cc4)CC3)cc2)c1=O | 67
5 | CC[C@@H](C)n1ncn(-c2ccc(N3CCN(c4ccc(OC[C@@H]5CO[C@@](c6ccc(Cl)cc6Cl)(C(F)(F)F)O5)cc4)CC3)cc2)c1=O | 69
6 | CC[C@@H](C)n1ncn(-c2ccc(N3CCN(c4ccc(OC[C@@H]5CO[C@@H](c6ccc(Cl)cc6Cl)O5)cc4)CC3)cc2)c1=O | 310
7 | CC[C@@H](C)n1ncn(-c2ccc(N3CCN(c4ccc(OC[C@@H]5CO[C@@](Cn6ccnc6)(c6ccc(Cl)cc6Cl)O5)cc4)CC3)cc2)c1=O | 110
8 | CC[C@@H](C)n1ncn(-c2ccc(N3CCN(c4ccc(OC[C@@H]5CO[C@](CCl)(c6ccc(Cl)cc6Cl)O5)cc4)CC3)cc2)c1=O | 20
9 | CC[C@@H](C)n1ncn(-c2ccc(N3CCN(c4ccc(OC[C@@H]5CO[C@@](CN)(c6ccc(Cl)cc6Cl)O5)cc4)CC3)cc2)c1=O | 550
10 | CCC(C)n1ncn(-c2ccc(N3CCN(c4ccc(OCC5COC(Cn6cncn6)(c6ccc(Cl)cc6Cl)O5)cc4)CC3)cc2)c1=O (stereo not drawn) [ITRACONAZOLE] | 140
11 | CC[C@@H](C)n1ncn(-c2ccc(N3CCN(c4ccc(OC[C@@H]5CO[C@](CN6C(=O)c7ccccc7C6=O)(c6ccc(Cl)cc6Cl)O5)cc4)CC3)cc2)c1=O | 1070
12 | CC[C@@H](C)n1ncn(-c2ccc(N3CCN(c4ccc(OC[C@@H]5CO[C@@](CN6C(=O)c7ccccc7C6=O)(c6ccc(Cl)cc6Cl)O5)cc4)CC3)cc2)c1=O | 820
13 | CC[C@@H](C)n1ncn(-c2ccc(N3CCN(c4ccc(OC[C@@H]5CO[C@](Cn6ccnc6)(c6ccc(Cl)cc6Cl)O5)cc4)CC3)cc2)c1=O | 110
